Experimental data reported in patent publication US8497276B2, “Substituted indolo-piperidine compounds” (ArQule, Inc., priority 2009, dated 2013).

Experiments:
PACA-2 = assay: MTS Assay (cell growth inhibition), PACA-2; type: cell-based; details: PACA-2 cells, 72 hours with test compound; concentration not given
Method: (§1) Cells were maintained at 37° C., 5% CO2 in DMEM media supplemented with 1% fetal bovine serum, penicillin/streptomycin and fungizone (Invitrogen). Cells were seeded into 96-well tissue culture plates at 3000 per well and cultured at 37° C. for 18 hours. Test compounds were dissolved and diluted to 300× in DMSO then diluted 1:40 in DMEM. Cells were incubated with test compounds for 72 hours followed by incubation with tetrazolium compound (3-(4,5-dimethylthiazol-2-yl)-5-(3-carboxymethoxyphenyl)-2-(4-sulfophenyl)-2H-tetrazolium, inner salt; MTS) and the electron coupling reagent, phenazine methosulfate (PMS) for 4 hours. […] The ability of compounds to inhibit cell growth in this assay is correlated with the reduction of dehydrogenase enzyme activity found in metabolically active cells. The measurement of the absorbance of the formazan was assessed using an ENVISION™ (Perkin Elmer) microplate reader at 492 nm. The calculated IC50 value is the concentration of the test compound that causes a 50% decrease in the absorbance.

Tec kinase = molecular target: T1, Tec kinase (Homo sapiens, UniProt P42680); assay: Tec Kinase Activity Assay; type: biochemical; details: 75 μM ATP, Pyk-2 substrate; compound concentration not given
T1 sequence (P42680 1-631): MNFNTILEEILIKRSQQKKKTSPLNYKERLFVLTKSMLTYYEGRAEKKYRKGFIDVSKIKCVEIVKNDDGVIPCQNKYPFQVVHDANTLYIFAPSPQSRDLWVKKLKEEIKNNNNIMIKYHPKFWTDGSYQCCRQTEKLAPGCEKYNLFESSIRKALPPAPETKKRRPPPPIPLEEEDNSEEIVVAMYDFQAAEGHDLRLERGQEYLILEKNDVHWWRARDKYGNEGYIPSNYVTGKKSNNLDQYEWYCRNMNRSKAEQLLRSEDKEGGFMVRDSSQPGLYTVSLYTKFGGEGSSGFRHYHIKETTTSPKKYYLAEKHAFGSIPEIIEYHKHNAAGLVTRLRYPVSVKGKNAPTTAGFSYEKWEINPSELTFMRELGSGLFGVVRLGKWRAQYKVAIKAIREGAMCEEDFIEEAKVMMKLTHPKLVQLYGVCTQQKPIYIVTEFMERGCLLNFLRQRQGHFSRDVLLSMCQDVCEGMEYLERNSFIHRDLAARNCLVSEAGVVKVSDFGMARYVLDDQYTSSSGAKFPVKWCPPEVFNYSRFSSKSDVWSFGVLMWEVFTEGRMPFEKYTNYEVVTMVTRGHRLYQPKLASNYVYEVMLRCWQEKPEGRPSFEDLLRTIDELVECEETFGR
Method: The disclosed compounds were assayed for their ability to inhibit the activity of Tec kinase. Nunc Maxisorb plates were coated with streptavidin by overnight incubation with 100 μl per well of 1 μg/ml Streptavidin in DPBS. Prior to the start of the experiment, the plates were washed with TBST (3×200 μl) and blocked for at least 1 hour by adding 150 μl of 5% BSA/TBST. The plates were then washed with TBST (3×200 μl/well) and left dry immediately before the capture step.
The disclosed test compounds and controls (Staurosporine and Sutent) were prepared using the following assay buffer (50 mM Tris-HCl, 0.02 mg/ml BSA, 10 mM MgCl2, 0.1 mM Na3VO4, 1 mM EGTA, 75 μM ATP, 0.01% NP-40, 2 mM DTT in 10% glycerol/water) at 3× desired final concentration. 20 μl of the test compounds (or control) and 20 μl TEC (0.25 ng/μl) were rapidly added to a reaction plate. The plate was incubated for 30 minutes. 20 μl of Pyk-2 (0.5 ng/μl) was then added to the reaction plate. The plate was incubated at room temperature for two hours.
50 μl was transferred from the reaction plate to the streptavidin coated plate. The capture plate was incubated at room temperature for 30 minutes then washed with TBST 6 times. 100 μl/well of Cell Signaling anti-phospho tyrosine was added to the capture plate at a dilution of 1:3000 in 2% BSA/TBST. The plate was incubated for one hour at room temperature then washed with TBST 6 times. 100 μl/well of alkaline phosphatase tagged goat anti-mouse antibody was added to the capture plate at a dilution of 1:4000 in 2% BSA/TBST. The plate was incubated for one hour at room temperature then washed with TBST 6 times.
The fluorescent readout was initiated by the addition of 100 μl/well of Attophos reagent (6 mg/10 ml) and the reading was done on the Perkin Elmer Envision system.

DLD-1 = assay: MTS Assay (cell growth inhibition), DLD-1; type: cell-based; details: DLD-1 cells, 72 hours with test compound; concentration not given
Method: as §1

Kato III = assay: MTS Assay (cell growth inhibition), Kato III; type: cell-based; details: Kato III cells, 72 hours with test compound; concentration not given
Method: as §1

MDA-MB 231 = assay: MTS Assay (cell growth inhibition), MDA-MB 231; type: cell-based; details: MDA-MB 231 cells, 72 hours with test compound; concentration not given
Method: as §1

NCI-H1299 = assay: MTS Assay (cell growth inhibition), NCI-H1299; type: cell-based; details: NCI-H1299 cells, 72 hours with test compound; concentration not given
Method: as §1

PC-3 = assay: MTS Assay (cell growth inhibition), PC-3; type: cell-based; details: PC-3 cells, 72 hours with test compound; concentration not given
Method: as §1

| SMILES | MTS cell kill data (% inhibition) PACA-2 (PACA-2) | Biochemical IC50 (% inhibition) Tec (Tec kinase) | MTS cell kill data (% inhibition) DLD-1 (DLD-1) | MTS cell kill data (% inhibition) Kato III (Kato III) | MTS cell kill data (% inhibition) MDA-MB 231 (MDA-MB 231) | MTS cell kill data (% inhibition) NCI-H1299 (NCI-H1299) | MTS cell kill data (% inhibition) PC-3 (PC-3) |
| --- | --- | --- | --- | --- | --- | --- | --- |
| FC(F)(F)c1cccc(C2c3[nH]c4ccccc4c3CCN2c2ncnc3[nH]ncc23)c1 (stereo not drawn) [Compound 9, 2-(1H-pyrazolo[3,4-d]pyrimidin-4-yl)-1-[3-(trifluoromethyl)phenyl]-2,3,4,9-tetrahydro-1H-beta-carboline] | B (B = 50-79% inhibition) | B (B = 50-79% inhibition) | B (B = 50-79% inhibition) | B (B = 50-79% inhibition) | B (B = 50-79% inhibition) | B (B = 50-79% inhibition) | C (C = <50% inhibition) |
| c1ccc(CC2c3[nH]c4ccccc4c3CCN2c2ncnc3[nH]ncc23)cc1 (stereo not drawn) [Compound 17, 1-benzyl-2-(1H-pyrazolo[3,4-d]pyrimidin-4-yl)-2,3,4,9-tetrahydro-1H-beta-carboline] | B (B = 50-79% inhibition) | C (C = <50% inhibition) | B (B = 50-79% inhibition) | B (B = 50-79% inhibition) | C (C = <50% inhibition) | B (B = 50-79% inhibition) | C (C = <50% inhibition) |
| c1ccc(C2c3[nH]c4ccccc4c3CCN2c2ncnc3[nH]cnc23)cc1 (stereo not drawn) [Compound 25, 1-phenyl-2-(9H-purin-6-yl)-2,3,4,9-tetrahydro-1H-beta-carboline] | B (B = 50-79% inhibition) | C (C = <50% inhibition) | B (B = 50-79% inhibition) | B (B = 50-79% inhibition) | C (C = <50% inhibition) | B (B = 50-79% inhibition) | C (C = <50% inhibition) |
| Fc1ccc(C2c3[nH]c4ccccc4c3CCN2c2ncnc3[nH]ncc23)cc1 (stereo not drawn) [Compound 6, 1-(4-fluorophenyl)-2-(1H-pyrazolo[3,4-d]pyrimidin-4-yl)-2,3,4,9-tetrahydro-1H-beta-carboline] | B (B = 50-79% inhibition) | B (B = 50-79% inhibition) | B (B = 50-79% inhibition) | A (A = 80-100% inhibition) | A (A = 80-100% inhibition) | B (B = 50-79% inhibition) | C (C = <50% inhibition) |
| FC(F)(F)c1cccc(C2c3[nH]c4ccccc4c3CCN2c2ncnc3[nH]cnc23)c1 (stereo not drawn) [Compound 8, 2-(9H-purin-6-yl)-1-[3-(trifluoromethyl)phenyl]-2,3,4,9-tetrahydro-1H-beta-carboline] | B (B = 50-79% inhibition) | C (C = <50% inhibition) | A (A = 80-100% inhibition) | A (A = 80-100% inhibition) | A (A = 80-100% inhibition) | A (A = 80-100% inhibition) | A (A = 80-100% inhibition) |
| Fc1c(Cl)cccc1C1c2[nH]c3ccccc3c2CCN1c1ncnc2[nH]ccc12 (stereo not drawn) [Compound 2, 1-(3-chloro-2-fluorophenyl)-2-(7H-pyrrolo[2,3-d]pyrimidin-4-yl)-2,3,4,9-tetrahydro-1H-beta-carboline] | A (A = 80-100% inhibition) | C (C = <50% inhibition) | A (A = 80-100% inhibition) | A (A = 80-100% inhibition) | A (A = 80-100% inhibition) | A (A = 80-100% inhibition) | A (A = 80-100% inhibition) |
| Fc1ccc(C2c3[nH]c4ccccc4c3CCN2c2ncnc3[nH]ccc23)cc1 (stereo not drawn) [Compound 4, 1-(4-fluorophenyl)-2-(7H-pyrrolo[2,3-d]pyrimidin-4-yl)-2,3,4,9-tetrahydro-1H-beta-carboline] | B (B = 50-79% inhibition) | B (B = 50-79% inhibition) | B (B = 50-79% inhibition) | B (B = 50-79% inhibition) | C (C = <50% inhibition) | B (B = 50-79% inhibition) | C (C = <50% inhibition) |
| c1ccc(C2c3[nH]c4ccccc4c3CCN2c2ncnc3[nH]ncc23)cc1 (stereo not drawn) [Compound 26, 1-phenyl-2-(1H-pyrazolo[3,4-d]pyrimidin-4-yl)-2,3,4,9-tetrahydro-1H-beta-carboline] | B (B = 50-79% inhibition) | C (C = <50% inhibition) | B (B = 50-79% inhibition) | B (B = 50-79% inhibition) | C (C = <50% inhibition) | B (B = 50-79% inhibition) | C (C = <50% inhibition) |
| Clc1ccccc1C1c2[nH]c3ccccc3c2CCN1c1ncnc2[nH]cnc12 (stereo not drawn) [Compound 13, 1-(2-chlorophenyl)-2-(9H-purin-6-yl)-2,3,4,9-tetrahydro-1H-beta-carboline] | C (C = <50% inhibition) | B (B = 50-79% inhibition) | C (C = <50% inhibition) | C (C = <50% inhibition) | C (C = <50% inhibition) | B (B = 50-79% inhibition) | C (C = <50% inhibition) |
| CC(C)c1ccc(C2c3[nH]c4ccccc4c3CCN2c2ncnc3[nH]ccc23)cc1 (stereo not drawn) [Compound 18, 1-(4-isopropylphenyl)-2-(7H-pyrrolo[2,3-d]pyrimidin-4-yl)-2,3,4,9-tetrahydro-1H-beta-carboline] | A (A = 80-100% inhibition) | C (C = <50% inhibition) | A (A = 80-100% inhibition) | A (A = 80-100% inhibition) | A (A = 80-100% inhibition) | A (A = 80-100% inhibition) | C (C = <50% inhibition) |
